The test system of test [1] is NIH3T3/AXL tumor xenografts. Kind of test: Anti-tumor efficacy in NIH3T3/AXL tumor xenografts. It counts as in vivo, mice. The note with it: 0.3, 1 or 10 mg/kg PO qd, all doses tested. How it is done: The engineered NIH3T3/AXL cell line was generated as follows. The human AXL cDNA was subcloned into the pQCXIP vector and the sequences were confirmed by sequencing at Children's Hospital of Philadelphia. PT67 cells (5×10^5) in 4 mL DMEM+10% FBS were seeded in each well of 6-well plates (Cat^#353046, Becton Dickinson, Franklin Lakes, N.J.) and cultured at 37° C. in a humidified incubator with 5% CO2 overnight. The cells were transfected with 2 μg of pQCXIP-AXL with Lipofectamine™ 2000 (Cat#52887, Invitrogen, Carlsbad, Calif.) transfection reagent per the manufacturer's protocol. In brief, the DNA in 500 μL culture media was mixed with 500 μL media containing 20 μL Lipofectamine™ 2000 transfection reagent, and the mixture was incubated at room temperature for 20 minutes. […]
NIH3T3/AXL cells were collected and resuspended in DMEM medium at density of 5×10^7/mL. […] The mice were monitored and the tumor sizes were measured. […] The length (L) and width (W) of each tumor were measured with a vernier caliper and the mouse body weight was determined every two to three days. Tumor volumes were calculated with the formula of 0.5236*L*W*(L+W)/2. […] Plasma and tumor samples were obtained at 2 hours post final dose at each dose level, and the compound levels in plasma and tumor lysates were measured by LC-MS/MS.

In test [2] the test system is EBC-1 Human NSCLC xenografts. Description: Discontinuous and alternate dosing schedules in EBC-1 xenografts. Particulars: 10 mg/kg oral. It counts as in vivo, mice. As for the experimental part:
After a period of 7 days of continuous dosing, animals were then switched to either a 7 day on/7 day off 10 mg/kg qd dosing regimen, or intermittent twice weekly (q2d) or thrice weekly (q3d) oral dosing at a 10 mg/kg qd dose for a total of 21 days.

In test [3] the target is T1, c-Met (Homo sapiens, UniProt P08581). Kind of test: c-Met enzyme inhibition. It counts as biochemical.
The target in test [4] is T1, c-Met. Description: Dissociation from c-Met, LanthaScreen Eu-kinase binding assay. How it is done:
Assay buffer was prepared as for association, and used for all dilutions. A 5-μL aliquot of 80 nM LanthaScreen Eu-anti-GST antibody:20 nM GST-tagged enzyme mix was added to the Greiner low volume white 384-well plate, with antibody only added to control wells. Compound (100 nL) in DMSO was added by pintool at 2000-fold over the final assay concentration. DMSO was added to no inhibitor control wells. After a one-hour incubation at ambient temperature to allow formation of the enzyme-inhibitor complex, 2 μL of the reaction mix was transferred to a 384 Optiplate (PerkinElmer) and 78 μL of kinase tracer 236 was added. The final tracer concentration was 100 nM for AXL and 200 nM for c-Met. Readings were immediately initiated and total of 60 time points were taken at 2-min intervals, at 25° C. or 37° C. The background subtracted ratio was normalized to the no inhibitor control to calculate the % tracer bound, which was plotted with respect to time. The data was fitted to the one phase association model in GraphPad Prism (La Jolla Calif.).

From patent publication US10028956B2, “Methods of treating various cancers using an AXL/cMET inhibitor in combination with other agents” (Ignyta, Inc., priority 2013, dated 2018) come the findings set out here.

T1 sequence (P08581 25-1390): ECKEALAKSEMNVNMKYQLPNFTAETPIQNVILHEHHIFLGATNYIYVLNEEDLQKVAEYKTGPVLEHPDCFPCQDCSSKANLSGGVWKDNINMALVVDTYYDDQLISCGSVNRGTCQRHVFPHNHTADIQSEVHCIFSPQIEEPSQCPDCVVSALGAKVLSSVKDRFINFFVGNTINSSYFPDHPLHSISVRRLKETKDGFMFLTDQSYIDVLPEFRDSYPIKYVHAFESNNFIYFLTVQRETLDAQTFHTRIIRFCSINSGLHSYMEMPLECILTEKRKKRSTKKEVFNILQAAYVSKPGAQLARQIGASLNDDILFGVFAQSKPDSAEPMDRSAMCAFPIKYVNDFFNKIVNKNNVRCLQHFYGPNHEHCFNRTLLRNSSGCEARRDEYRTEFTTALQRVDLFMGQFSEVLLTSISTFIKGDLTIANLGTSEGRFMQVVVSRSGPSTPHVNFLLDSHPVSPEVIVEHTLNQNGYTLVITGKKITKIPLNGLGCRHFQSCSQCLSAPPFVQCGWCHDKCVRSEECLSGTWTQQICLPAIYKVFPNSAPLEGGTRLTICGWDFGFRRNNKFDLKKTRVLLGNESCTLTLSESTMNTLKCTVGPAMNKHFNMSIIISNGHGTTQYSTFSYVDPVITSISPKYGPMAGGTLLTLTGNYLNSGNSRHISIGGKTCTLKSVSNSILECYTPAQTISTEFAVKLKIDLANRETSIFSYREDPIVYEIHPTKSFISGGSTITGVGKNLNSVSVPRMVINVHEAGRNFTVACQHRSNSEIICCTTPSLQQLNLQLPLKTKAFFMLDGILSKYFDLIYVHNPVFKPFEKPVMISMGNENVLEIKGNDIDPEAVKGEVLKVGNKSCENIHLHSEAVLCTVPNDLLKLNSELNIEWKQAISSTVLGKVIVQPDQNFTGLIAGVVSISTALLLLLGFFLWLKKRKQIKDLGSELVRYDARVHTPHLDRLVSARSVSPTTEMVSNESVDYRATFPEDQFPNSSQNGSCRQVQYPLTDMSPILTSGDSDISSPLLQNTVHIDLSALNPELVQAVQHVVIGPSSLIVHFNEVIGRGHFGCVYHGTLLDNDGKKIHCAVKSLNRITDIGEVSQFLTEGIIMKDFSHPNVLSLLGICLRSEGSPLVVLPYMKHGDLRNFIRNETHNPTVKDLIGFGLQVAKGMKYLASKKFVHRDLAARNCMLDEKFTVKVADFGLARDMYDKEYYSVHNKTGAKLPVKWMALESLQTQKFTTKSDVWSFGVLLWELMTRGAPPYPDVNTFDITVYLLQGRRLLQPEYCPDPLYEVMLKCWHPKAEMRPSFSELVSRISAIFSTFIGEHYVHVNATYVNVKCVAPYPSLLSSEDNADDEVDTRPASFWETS

For `COc1cc2nccc(Oc3ccc(NC(=O)c4cn(C(C)C)c(=O)n(-c5ccc(F)cc5)c4=O)cc3F)c2cc1OC` [CEP-40783, 3-(4-Fluorophenyl)-1-isopropyl-2,4-dioxo-1,2,3,4-tetrahydropyrimidine-5-carboxylic acid [4-(6,7-dimethoxyquinolin-4-yloxy)-3-fluorophenyl]-amide], the “anti-tumor efficacy (tumor volume)” value in test [1] was “complete tumor regressions”. Also, the partial responses came out at 40% in test [2] (every 2 days (q2d)); 70% in test [2] (every 3 days (q3d)); 40% in test [2] (qd, 7 days on/7 days off (qd×7)). In addition, the results for the “complete tumor regressions, % of animals” value in test [2] (q2d dosing group) and in test [2] (qd×7 dosing group) were 20% and 10%, respectively. Moreover, at c-Met [3], the midpoint of inhibition, the IC50, lay at 12 nM. For the same compound, the “off-rate from c-Met” value on c-Met [4] (25° C.) is listed as “very slow”. Moreover, the “dissociation rate from c-Met at higher temperature” value at c-Met [4] (37° C. versus 25° C.) was “slightly enhanced”.
